# Test results from patent US8883502B2, “Expandable cell source of neuronal stem cell populations and methods for obtaining and using them” (The Regents of the University of California, priority 2010, dated 2014).
# B1: Wnt3a: Wnt3a used to replace CHIR in the neural induction protocol (protein, UniProt P56704 19-352, looked up)
# Protein Wnt-3a: SYPIWWSLAVGPQYSSLGSQPILCASIPGLVPKQLRFCRNYVEIMPSVAEGIKIGIQECQHQFRGRRWNCTTVHDSLAIFGPVLDKATRESAFVHAIASAGVAFAVTRSCAEGTAAICGCSSRHQGSPGKGWKWGGCSEDIEFGGMVSREFADARENRPDARSAMNRHNNEAGRQAIASHMHLKCKCHGLSGSCEVKTCWWSQPDFRAIGDFLKDKYDSASEMVVEKHRESRGWVETLRPRYTYFKVPTERDLVYYEASPNFCEPNPETGSFGTRDRTCNVSSHGIDGCDLLCCGRGHNARAERRREKCRCVFHWCCYVSCQECTRVYDVHTCK
# What was measured:
# pNSCs = experiment: pNSC self-renewal, clonogenicity and culture on Matrigel; assay type: cell-based, human
# Description: (§1) hESCs (HUES9 and HUES1) at about 20% confluence were treated with 3 μM CHIR99021 (Cellagentech), 2 μM SB431542 (Cellagentech), 0.1 μM Compound E (γ-Secretase Inhibitor XXI, EMD Chemicals Inc.) in neural induction media containing Advanced DMEM/F12:Neurobasal (1:1), 1×N2, 1×B27, 1% Glutmax, 5 μg/mL BSA and 10 ng/mL hLIF (Millipore), for 7 d. The culture was then split 1:3 for the next six passages using Accutase and cultured in neural induction media supplemented with 3 μM CHIR99021 and 2 μM SB431542 on X-ray inactivated MEF feeders or Matrigel-coated plates. After six passages, the cells were split 1:10 regularly. Neural induction of H1 hESCs follows the same protocol, but using 4 μM CHIR99021, 3 μM SB431542, and 0.1 μM compound E in the first 7 d, after which the cells were regularly cultured with neural induction media supplemented with 3 μM CHIR99021 and 2 μM SB431542. During the initial few passages, overnight treatment with the ROCK inhibitor (Y-27632, 5 μM, Cellagentech) was also used to enhance cell survival, but not required in following passages. In the present study, neural induction data were collected under feeder conditions except the FACS analysis of FIG. 6 performed under feeder-free condition. pNSCs were expanded on Matrigel-coated surfaces.
# pNSCs can long-term self-renew over serial passages on Matrigel with SBR431542, CHIR, and hLIF. pNSCs generated from HUES9 and H1 hESCs were routinely passaged 1:10 and have been cultured for >30 passages without obviously losing proliferative capacity, which is equivalent to at least 94 population doublings. However, individual omission of hLIF, SB431542, or CHIR from the media compromised pNSCs' long-term self-renewal. Single pNSC is clonogenic on Matrigel in the presence of hLIF/SB431542/CHIR (FIG. 2A). […] Despite their highly proliferative and clonogenic capacity, pNSCs are not tumorigenic in SCID beige mice.
# GSK3 = GSK3 inhibitor; cited from earlier work
# Notch signaling = Notch signaling inhibitor and gamma secretase inhibitor; cited from earlier work
# SAPK2/p38 = SAPK2/p38 (Homo sapiens, UniProt Q16539); conditions: inhibitor of CK1 and ALK5; cited from earlier work
# Sequence of SAPK2/p38 (Q16539 whole entry): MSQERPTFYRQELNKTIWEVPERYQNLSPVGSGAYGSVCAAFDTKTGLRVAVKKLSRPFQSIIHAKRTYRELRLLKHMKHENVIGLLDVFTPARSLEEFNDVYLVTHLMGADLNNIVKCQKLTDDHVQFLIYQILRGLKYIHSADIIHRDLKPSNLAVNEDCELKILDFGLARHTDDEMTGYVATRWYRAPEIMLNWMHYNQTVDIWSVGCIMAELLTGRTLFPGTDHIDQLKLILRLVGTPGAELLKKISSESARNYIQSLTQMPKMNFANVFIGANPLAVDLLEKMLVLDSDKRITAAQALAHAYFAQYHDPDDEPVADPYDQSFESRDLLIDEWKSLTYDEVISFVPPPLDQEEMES
# GSK3β = GSK3β (Homo sapiens, UniProt P49841); conditions: cited from earlier work
# Sequence of GSK3β (P49841 whole entry, species assumed): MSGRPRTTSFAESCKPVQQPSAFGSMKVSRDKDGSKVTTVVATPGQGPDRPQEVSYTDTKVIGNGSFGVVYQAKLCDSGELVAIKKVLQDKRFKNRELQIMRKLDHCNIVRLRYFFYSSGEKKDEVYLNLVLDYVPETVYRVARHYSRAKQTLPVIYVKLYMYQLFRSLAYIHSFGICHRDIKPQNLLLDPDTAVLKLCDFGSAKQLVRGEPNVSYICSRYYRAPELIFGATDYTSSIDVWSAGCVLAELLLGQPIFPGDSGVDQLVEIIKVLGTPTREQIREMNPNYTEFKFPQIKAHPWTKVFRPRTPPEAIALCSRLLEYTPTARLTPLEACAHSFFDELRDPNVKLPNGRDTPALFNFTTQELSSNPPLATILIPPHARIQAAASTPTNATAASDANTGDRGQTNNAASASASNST
# gamma secretase = conditions: read-out: IC50, gamma secretase inhibitor; cited from earlier work
# hESCs = experiment: Neural induction of hESCs (real-time PCR, immunocytochemistry, flow cytometry); assay type: cell-based, human
# Description: as §1, with “[…]),” for “CHIR99021 (Cellagentech),”, “([…]),” for “(Cellagentech),”, “Neural induction of H1 hESCs follows the same protocol, but using 4 μM CHIR99021, 3 μM SB431542, and 0.1 μM compound E in the first 7 d, after which the cells were regularly cultured with neural induction media supplemented with 3 μM CHIR99021 and 2 μM SB431542.” left out, “([…])” for “(Y-27632, 5 μM, Cellagentech)”, “surfaces. For immunofluorescence assays, pNSCs were fixed in 4% paraformaldehyde for 10 min. Specifically, 4% paraformaldehyde with 0.15% picric acid was used to fix the neuronal differentiation culture. For immunostaining of GABA antigen, the cells were fixed in 4% paraformaldehyde, 0.15% picric acid and 0.02% Glutaraldehyde. […]” for “surfaces.”
molecule,measurement,setting,value
"bFGF: basic fibroblast growth factor, 20 ng/mL in neural induction media",morphology of pNSCs,"pNSCs; neural induction media with 20 ng/mL bFGF, 4 d",gained rosette-like structures
"CCC[C@H](N[C@H]1CCc2cc(F)cc(F)c2C1)C(=O)Nc1cn(C(C)(C)CNCC(C)(C)C)cn1 [PF-03084014, (S)-2-(((S)-6,8-difluoro-1,2,3,4-tetrahydronaphthalen-2-yl)amino)-N-(1-(2-methyl-1-(neopentylamino)propan-2-yl)-1H-imidazol-4-yl)pentanamide]",IC50,Notch signaling,13.3 nM
"NC(=O)c1ccc(-c2nc(-c3ccc4c(c3)OCCO4)c(-c3ccccn3)[nH]2)cc1 [D 4476, 4-[4-(2,3-Dihydro-1,4-benzodioxin-6-yl)-5-(2-pyridinyl)-1H-imidazol-2-yl]benzamide]",selectivity over SAPK2/p38,SAPK2/p38,> 20 fold
"O=C1NC(=O)C(c2cccc3c2OCO3)N1 (stereo not drawn) [(Z)-5-(2,3-Methylenedioxyphenyl)imidazolidine-2,4-dione]",IC50,GSK3β,27 nM
"C[C@H](NC(=O)Cc1cc(F)cc(F)c1)C(=O)N[C@H]1N=C(c2ccccc2)c2ccccc2N(C)C1=O [Compound E, (S,S)-2-[2-(3,5-Difluorophenyl)-acetylamino]-N-(1-methyl-2-oxo-5-phenyl-2,3-dihydro-1H-benzo[e][1,4]diazepin-3-yl)-propionamide]",effect on established pNSCs,pNSCs; 48 h treatment,rapidly induced pNSCs to differentiate into Double cortin (DCX)-positive neuronal precursors
same,colony formation from single pNSC,pNSCs; on Matrigel,no colonies were observed
same,IC50,gamma secretase,~0.3 nM
B1,effect of replacing CHIR in the neural induction protocol,hESCs,induced significant spontaneous differentiation and did not generate a homogenous NSC population
